# Measurements reported in patent US20040192686A1, “Benzoazine mono-N-oxides and benzoazine 1,4 dioxides and compositions therefrom for the therapeutic use in cancer treatments” (Auckland Uniservices Limited, priority 2003, published 2004).
row,Structure (SMILES),melting point [°C]
1,"COc1cc2c(cc1C)nc(NCCN1CCCCC1)n[n+]2[O-] [Compound 119, 7-Methoxy-6-methyl-N-[2-(1-piperidinyl)ethyl]-1,2,4-benzotriazin-3-amine 1-oxide]",195 to 197
2,"O=C(NCCOCCNc1nc2ccccc2[n+]([O-])n1)c1cccc2cc3ccccc3nc12 [Compound 121, N-(2-{2-[(1-Oxido-1,2,4-benzotriazin-3-yl)amino]ethoxy}ethyl)-4-acridinecarboxamide]",178 to 182
3,"COCCNc1nc2ccccc2[n+]([O-])c1C#N [Compound 123, 3-[(2-Methoxyethyl)amino]-2-quinoxalinecarbonitrile 1-oxide]",124 to 126
4,"Nc1nc2ccccc2n[n+]1[O-] [Compound 126, 1,2,4-Benzotriazin-3-amine 2-oxide]",175 to 180
5,"[O-][n+]1nc(Cl)nc2cc(Cl)ccc21 [Compound 133, 3,6-Dichloro-1,2,4-benzotriazine 1-Oxide]",149 to 151
6,"[O-][n+]1nc(NCCN2CCCCC2)nc2cc(Cl)ccc21 [Compound 135, 6-Chloro-N-[2-(1-piperidinyl)ethyl]-1,2,4-benzotriazin-3-amine 1-Oxide]",178 to 181
7,"Cc1ccc2c(c1)nc(NCCN1CCOCC1)n[n+]2[O-] [Compound 138, 6-Methyl-N-[2-(4-morpholinyl)ethyl]-1,2,4-benzotriazin-3-amine 1-Oxide]",182 to 184
8,"COc1ccc2c(c1)nc(NCCN1C(C)CCCC1C)n[n+]2[O-] (stereo not shown) [Compound 141, N-[2-(2,6-Dimethyl-1-piperidinyl)ethyl]-6-methoxy-1,2,4-benzotriazin-3-amine 1-oxide]",170 to 171
9,"[O-][n+]1nc(Cl)nc2cc(C(F)(F)F)ccc21 [Compound 142, 3-Chloro-6-trifluoromethyl-1,2,4-benzotriazine 1-Oxide]",118 to 120
10,"CC(C)c1ccc2c(c1)nc(NCCN1CCOCC1)n[n+]2[O-] [Compound 149, 6-Isopropyl-N-[2-(4-morpholinyl)ethyl]-1,2,4-benzotriazin-3-amine 1-Oxide]",145 to 147
11,"CC(C)c1ccc2c(c1)nc(NCCN1CCCCC1)n[n+]2[O-] [Compound 150, 6-Isopropyl-N-[2-(1-piperidinyl)ethyl]-1,2,4-benzotriazin-3-amine 1-Oxide]",124 to 127
12,"CC(C)(C)c1ccc2c(c1)nc(N)n[n+]2[O-] [Compound 153, 6-tert-Butyl-1,2,4-benzotriazin-3-amine 1-Oxide]",209 to 212
13,"CC(C)(C)c1ccc2c(c1)nc(Cl)n[n+]2[O-] [Compound 154, 6-tert-Butyl-3-chloro-1,2,4-benzotriazine 1-oxide]",91 to 94
14,"CC(C)(C)c1ccc2c(c1)nc(NCCN1CCOCC1)n[n+]2[O-] [Compound 157, 6-tert-Butyl-N-[2-(4-morpholinyl)ethyl]-1,2,4-benzotriazin-3-amine 1-Oxide]",132 to 134
15,"CC(C)(C)c1ccc2c(c1)nc(NCCN1CCCCC1)n[n+]2[O-] [Compound 158, 6-tert-Butyl-N-[2-(1-piperidinyl)ethyl]-1,2,4-benzotriazin-3-amine 1-Oxide]",145 to 148
16,"CCc1nc2cc(F)ccc2[n+]([O-])n1 [Compound 160, 3-Ethyl-6-fluoro-1,2,4-benzotriazine 1-oxide]",122 to 124
17,"Cc1cc2nc(NCCN3CCOCC3)n[n+]([O-])c2cc1C [Compound 167, 6,7-Dimethyl-N-[2-(4-morpholinyl)ethyl]-1,2,4-benzotriazi n-3-amine 1-Oxide]",211 to 213

# Now from value to compound:
row,melting point [°C],Structure (SMILES)
1,182 to 184,"COc1cc2c(cc1C)nc(NCCN(C)C)n[n+]2[O-] [Compound 118, N^1,N^1-Dimethyl-N^2-(7-methoxy-6-methyl-1-oxido-1,2,4-benzotriazin-3-yl)-1,2-ethanediamine]"
2,128 to 130,"CCN(CC)CCNc1nc2cc(Cl)ccc2[n+]([O-])n1 [Compound 134, N^1-(6-Chloro-1-oxido-1,2,4-benzotriazin-3-yl)-N^2,N^2-diethyl-1,2-ethanediamine]"
3,78 to 80,"CCN(CC)CCNc1nc2cc(C)ccc2[n+]([O-])n1 [Compound 137, N^1,N^1-Diethyl-N^2-(6-methyl-1-oxido-1,2,4-benzotriazin-3-yl)-1,2-ethanediamine]"
4,131 to 132,"Cc1ccc2c(c1)nc(NCCCN1CCOCC1)n[n+]2[O-] [Compound 139, 6-Methyl-N-[3-(4-morpholinyl)propyl]-1,2,4-benzotriazin-3-amine 1-Oxide]"
5,88 to 90,"CCCN(CCC)CCNc1nc2cc(C)ccc2[n+]([O-])n1 [Compound 140, N^1-(6-Methyl-1-oxido-1,2,4-benzotriazin-3-yl)-N^2,N^2-dipropyl-1,2-ethanediamine]"
6,87 to 89,"CC(C)c1ccc2c(c1)nc(NCCN(C)C)n[n+]2[O-] [Compound 147, N^1-(6-Isopropyl-1-oxido-1,2,4-benzotriazin-3-yl)-N^2,N^2-dimethyl-1,2-ethanediamine]"
7,60 to 62,"CCN(CC)CCNc1nc2cc(C(C)C)ccc2[n+]([O-])n1 [Compound 148, N^1-(6-Isopropyl-1-oxido-1,2,4-benzotriazin-3-yl)-N^2,N^2-diethyl-1,2-ethanediamine]"
8,79 to 81,"CCCN(CCC)CCNc1nc2cc(C(C)C)ccc2[n+]([O-])n1 [Compound 151, N^1-(6-Isopropyl-1-oxido-1,2,4-benzotriazin-3-yl)-N^2,N^2-dipropyl-1,2-ethanediamine]"
9,140 to 144,"CN(C)CCNc1nc2cc(C(C)(C)C)ccc2[n+]([O-])n1 [Compound 155, N^1-(6-tert-Butyl-1-oxido-1,2,4-benzotriazin-3-yl)-N^2,N^2-dimethyl-1,2-ethanediamine]"
10,89 to 91,"CCN(CC)CCNc1nc2cccc(C)c2[n+]([O-])n1 [Compound 162, N^1,N^1-Diethyl-N^2-(8-methyl-1-oxido-1,2,4-benzotriazin-3-yl)-1,2-ethanediamine]"
11,168 to 170,"Cc1cccc2nc(NCCN3CCOCC3)n[n+]([O-])c12 [Compound 163, 8-Methyl-N-[2-(4-morpholinyl)ethyl]-1,2,4-benzotriazin-3-amine 1-Oxide]"
12,169 to 171,"Cc1cccc2nc(NCCN3C(C)CCCC3C)n[n+]([O-])c12 (stereo not shown) [Compound 164, N-[2-(2,6-Dimethyl-1-piperidinyl)ethyl]-8-methyl-1,2,4-benzotriazin-3-amine 1-Oxide]"
13,91 to 93,"CCCN(CCC)CCNc1nc2cccc(C)c2[n+]([O-])n1 [Compound 165, N^1-(8-Methyl-1-oxido-1,2,4-benzotriazin-3-yl)-N^2,N^2-dipropyl-1,2-ethanediamine]"
14,130 to 132,"CCN(CC)CCNc1nc2cc(C)c(C)cc2[n+]([O-])n1 [Compound 166, N^1-(6,7-Dimethyl-1-oxido-1,2,4-benzotriazin-3-yl)-N^2,N^2-diethyl-1,2-ethanediamine]"
